Data on 8 compounds can be found in ChEMBL document CHEMBL1201862, “PubChem BioAssay data set” (2004).

Test systems include CAKI-1; COLO 205; HCC 2998; HCT-116; HCT-15; HL-60; IGROV-1; M14; NCI-H460; NCI-H522; NCI/ADR-RES; RXF 393; SF-295; SF-539; SN12C; SR; A498; LOX IMVI; MDA-MB-435.
Holding throughout (assay): NCI tumour cell line growth inhibition, 48 h

The structures appear in SMILES notation.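 Where inhibition never reached the appropriate level, the endpoint shown equals the highest concentration tested. Otherwise, values were interpolated linearly from a five-concentration, 48-hour dose response in 96-well plates. GI50: concentration for 50% inhibition of growth.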 The source made the active and inactive calls. No stated cut-off is given here; in the data, active = GI50 up to about 1.1 µM and inactive = higher. Bounds are passed on as bounds.

`Cc1cccc2c1nc1n2C(=O)c2ccccc2-1`: the GI50 in the assay with CAKI-1 is > 100 µM (inactive); with COLO 205, > 100 µM (inactive); in the assay with HCC 2998, > 100 µM (inactive); with HCT-116, > 100 µM (inactive); with HCT-15, above 100 µM; in the assay on HL-60, > 100 µM (inactive). Besides, the GI50 in the assay with IGROV-1, with M14, with NCI-H460, with NCI-H522, in the assay with NCI/ADR-RES and in the assay with RXF 393 was > 100 µM (inactive) throughout. Also, the GI50 in the assay with SF-295, with SF-539, in the assay on SN12C and in the assay with SR was > 100 µM (inactive) throughout.

As to `CC(C)C(Br)CCC1=CCC(Br)(Br)C1` (stereo not drawn), the GI50 with A498 is 18.8 µM (inactive); in the assay on CAKI-1 it was 17.2 µM (inactive); in the assay with COLO 205, 15.7 µM (inactive); in the assay on HCC 2998, 14.9 µM (inactive); in the assay on HCT-116 it was 14.6 µM (inactive); in the assay with HL-60 it was 3.4 µM (inactive). Further, the GI50 in the assay with IGROV-1 was 3.21 µM (inactive); with LOX IMVI, 1.41 µM (inactive); in the assay on M14 it was 3.81 µM (inactive); with MDA-MB-435 it was 10.5 µM (inactive); in the assay with NCI-H460, 16.7 µM (inactive); with NCI-H522 it was 2.35 µM (inactive). The GI50 with NCI/ADR-RES was 22.6 µM (inactive); with RXF 393, 15.2 µM (inactive); in the assay with SF-295, 17 µM (inactive); with SF-539 it was 19.2 µM (inactive); with SN12C, 4.2 µM (inactive); in the assay with SR it was 2.62 µM (inactive).

Regarding `CC(C)(C)C1CCC2c3c([nH]c4ccccc34)C3C(=O)N(c4ccccc4Cl)C(=O)C3C2C1` (stereo not drawn), the GI50 was 17.9 µM (inactive) in the assay on A498; 9.12 µM (inactive) in the assay on CAKI-1; > 10 µM (inactive) in the assay with COLO 205; 3.41 µM (inactive) with HCC 2998; 3.18 µM (inactive) in the assay on HCT-116; 12.1 µM in the assay on HCT-15. The GI50 with HL-60 was 12.6 µM (inactive); in the assay on IGROV-1, 25.9 µM (inactive); in the assay with LOX IMVI it was 10.6 µM (inactive); in the assay on M14, 17.1 µM (inactive); in the assay on MDA-MB-435, 30.7 µM (inactive); in the assay on NCI-H460, 3.48 µM (inactive). For the same compound, the GI50 is 15.3 µM (inactive) in the assay on NCI/ADR-RES; 11.9 µM (inactive) in the assay with RXF 393; 19.7 µM (inactive) in the assay with SF-295; > 10 µM (inactive) in the assay with SF-539; 10.6 µM (inactive) in the assay on SN12C; 13.4 µM (inactive) in the assay with SR.

For `COC(=O)C(CC1=C(O)Nc2ccccc2N1)/C(=N/NC(N)=O)C(=O)Nc1ccccc1C` (stereo not drawn), the GI50 in the assay on A498 was > 100 µM (inactive); with CAKI-1 it was > 100 µM (inactive); with COLO 205, 28.5 µM (inactive); in the assay with HCC 2998 it was > 100 µM (inactive); in the assay with HCT-116 it was 18.2 µM (inactive); in the assay on HCT-15 it was 16.6 µM. The GI50 with HL-60 was > 100 µM (inactive); in the assay with IGROV-1 it was > 100 µM (inactive); with LOX IMVI, 17.8 µM (inactive); in the assay with M14, > 100 µM (inactive); in the assay with NCI-H460, 28.8 µM (inactive); in the assay with NCI-H522, 16.8 µM (inactive). In addition, the GI50 is 38.5 µM (inactive) in the assay with RXF 393; > 100 µM (inactive) in the assay on SF-295; > 100 µM (inactive) with SF-539; > 100 µM (inactive) in the assay with SN12C; 20.8 µM (inactive) with SR.

Turning to `COC(=O)[C@](NC(=O)OCc1ccccc1)([C@@H](C)Sc1ccc(C)cc1)C(F)(F)F`, the GI50 with A498 was > 100 µM (inactive); in the assay on CAKI-1, 57.5 µM (inactive); with COLO 205, 19.2 µM (inactive); in the assay on HCC 2998 it was > 100 µM (inactive); with HCT-116 it was 35.4 µM (inactive); in the assay on HCT-15, 27.5 µM. The GI50 in the assay with HL-60 was 17.4 µM (inactive); in the assay on IGROV-1, 16.5 µM (inactive); with LOX IMVI, 39 µM (inactive); in the assay on M14 it was 68.2 µM (inactive); with MDA-MB-435, 49.2 µM (inactive); in the assay with NCI-H460 it was 34.5 µM (inactive). In addition, the GI50 in the assay on NCI-H522 was 25.1 µM (inactive); in the assay on NCI/ADR-RES, 36 µM (inactive); in the assay with SF-295 it was 61.1 µM (inactive); with SF-539, 69.3 µM (inactive); in the assay with SR, 31.1 µM (inactive).

For the compound `CN(C)CCNC(=O)c1cccc2c(NC(CS)C(=O)O)c3ccccc3nc12` (stereo not drawn), the GI50 was > 10 µM (inactive) in the assay on A498; 5.75 µM (inactive) in the assay with CAKI-1; 3.01 µM (inactive) with COLO 205; 6.21 µM (inactive) in the assay with HCC 2998; 4.73 µM (inactive) in the assay on HCT-116; 3.72 µM in the assay on HCT-15. For the same compound, the GI50 was 3.3 µM (inactive) in the assay with HL-60; 4.88 µM (inactive) in the assay on IGROV-1; 4.41 µM (inactive) with LOX IMVI; 4.39 µM (inactive) in the assay on M14; 4.49 µM (inactive) in the assay on MDA-MB-435; 15 µM (inactive) in the assay on NCI-H460. Also, the GI50 in the assay with NCI-H522 is 4.19 µM (inactive); in the assay on NCI/ADR-RES, 9.82 µM (inactive); in the assay with SF-295 it was 5.32 µM (inactive); with SF-539, 2.41 µM (inactive); in the assay with SN12C it was 2.6 µM (inactive); in the assay on SR, 96.2 µM (inactive).

In the case of `N#Cc1cc([N+](=O)[O-])ccc1NC(=O)C(=O)C(C(=O)c1ccc2ccccc2c1)C1OCc2ccccc21` (stereo not drawn), the GI50 was 5.56 µM (inactive) in the assay on A498; 9.4 µM (inactive) in the assay on CAKI-1; 9.4 µM (inactive) with COLO 205; 10.3 µM (inactive) with HCC 2998; 5.01 µM (inactive) in the assay on HCT-116; 7.8 µM in the assay on HCT-15. For the same compound, the GI50 in the assay with HL-60 is 12.2 µM (inactive); in the assay on IGROV-1, 17.6 µM (inactive); in the assay on LOX IMVI, 7.19 µM (inactive); in the assay with M14, 15.1 µM (inactive); with NCI-H460 it was 4.38 µM (inactive); with NCI-H522 it was 7.29 µM (inactive). For the same compound, the GI50 in the assay with RXF 393 is 3.73 µM (inactive); with SF-295, 3.15 µM (inactive); in the assay with SF-539, 1.82 µM (inactive); in the assay with SN12C, 13.7 µM (inactive); in the assay with SR, 2.88 µM (inactive).

`COc1ccc(NC(=O)C/C(C)=N\N=C(N)N)c([N+](=O)[O-])c1`: the GI50 was > 100 µM (inactive) in the assay on A498; > 100 µM (inactive) with CAKI-1; > 100 µM (inactive) with COLO 205; > 100 µM (inactive) in the assay on HCC 2998; > 100 µM (inactive) in the assay with HCT-116; above 100 µM in the assay on HCT-15. In addition, the GI50 in the assay on HL-60 is 88.5 µM (inactive); in the assay on IGROV-1 it was > 100 µM (inactive); with LOX IMVI, 33.9 µM (inactive); with M14, > 100 µM (inactive); with NCI-H460 it was > 100 µM (inactive); with NCI-H522, > 100 µM (inactive). In addition, the GI50 in the assay on RXF 393 was > 100 µM (inactive); with SF-295, > 100 µM (inactive); with SF-539 it was > 100 µM (inactive); in the assay on SN12C it was > 100 µM (inactive); in the assay with SR, 23.3 µM (inactive).
